Test results taken from US20060111305A1, “Metabolites of certain [1,4]diazepino[6,7,1-ij]quinoline derivatives and methods of preparation and use thereof” (Wyeth, priority 2004, published 2006).
Values joined by “and” are separate entries in the source; they are usually repeats but may differ in a detail not shown here. Equal values may be shown once.

Tests used:
[1] = dogs; cited from earlier work
[2] = Rat blood and plasma radioactivity concentrations after single oral 5 mg/kg [14C]DCDQ; format: in vivo, Sprague-Dawley rats; conditions: for Blood concentration of radioactivity, individuals / Plasma concentration of radioactivity, individuals: 5 mg/kg
Protocol: Dose preparation, animal dosing, and specimen collection were performed at Wyeth Research, Collegeville, Pa. The dose vehicle contained 2% (w/w) Tween 80 and 0.5% methylcellulose in water. […] Male rats weighing from 318 to 345 grams and female rats weighing from 227 to 255 grams at the time of dosing were purchased from Charles River Laboratories, Wilmington, Mass. Non-fasted rats were given a single 5 mg/kg (˜300 μCi/kg) dose of DCDQ at a volume of 2.5 mL/kg via intragastric gavage. Animals were provided Purina rat chow and water ad libitum, and were kept individually in metabolism cages. Male rats were sacrificed at 2, 4, 8 and 24 hour after dose administration. Female rats were sacrificed at 2 and 8 hour after dose administration. At sacrifice, blood samples were collected by cardiac puncture into tubes containing EDTA as the anticoagulant and placing them on ice. Aliquots of 50 μL were removed for combustion and determination of radioactivity content. Plasma was immediately obtained from the remaining blood by centrifugation at 4° C. Brains were excised after perfusion with 50 mL of chilled sterile saline. Urine samples were collected on dry ice at intervals of 0-8 and 8-24 hour post-dosing. Feces were collected at intervals of 0-8 and 8-24 hr post-dosing at room temperature and were homogenized as described previously. The biological specimens and aliquots of the dosing solution at pre- and post-dose were stored at approximately −70° C. until analyzed. Plasma (20 μL) and urine (50 μL) aliquots were analyzed for radioactivity concentrations. Radioactivity determinations of dose, plasma and urine were made with a Tri-Carb Model 3100 TR/LL liquid scintillation counter (LSC) (Perkin Elmer) using 10 mL of Ultima Gold as the scintillation fluid. […] Blood aliquots (50 μL), brain homogenates (0.1 gram) and fecal homogenates (0.2 gram) were placed on Combusto-cones with Combusto-pads and combusted. A model 307 Tri-Carb Sample Oxidizer, equipped with an Oximate-80 Robotic Automatic Sampler (Perkin Elmer), was used for combustion. The liberated ^14CO2 was trapped with Carbo-Sorb E carbon dioxide absorber, mixed with PermaFluor® E+ liquid scintillation cocktail, and counted in a Tri-Carb Model 3100 TR/LL liquid scintillation counter (Perkin Elmer). The oxidation efficiency of the oxidizer was 98.2%.

[3] = Dog blood and plasma radioactivity concentrations after single 15 mg/kg oral enteric-coated capsule of [14C]DCDQ; format: in vivo, beagle dogs; conditions: 15 mg/kg oral capsule; for Blood concentration of radioactivity, individual dogs 1-4 / Plasma concentration of radioactivity, individual dogs 1-4: 15 mg/kg
Protocol: About 11 mg of [^14C]DCDQ hydrochloride and 940 mg of non-labeled DCDQ hydrochloride were dissolved in methanol and then evaporated under a nitrogen stream to dryness. Capsules (#2) were filled with accurate amounts (126.7-138.1 mg) of the mixed drug substance according to animal weights. The filled gelatin capsules were then enteric-coated manually. Four male beagle dogs, weighing from 7.6 to 9.8 kg at the time of dosing, were from an in-house colony. Each dog was given one enteric-coated capsule containing [^14C]DCDQ as the hydrochloride salt. Animals were fed two hours prior to dosing and provided Purina dog chow and water ad libitum, and were housed individually in metabolic cages. Blood samples were collected from the jugular vein at 2, 4, 8, 24 and 48 hour after dose administration into tubes containing potassium EDTA as the anticoagulant and then placed on ice. Aliquots of 50 μL were removed for combustion and determination of radioactivity content. Plasma was immediately obtained from the remaining blood by centrifugation at 4° C. Urine samples were collected into tubes on dry ice at intervals of 0-8, 8-24 and 24-48 hour post-dose. Fecal samples were collected at intervals of 0-8, 8-24 and 24-48 hour post-dose at room temperature, and were homogenized. The biological specimens were stored at approximately −70° C. until analysis. Aliquots of 50 μL of plasma and 100-200 μL of urine were analyzed for radioactivity concentrations. Radioactivity determinations of dose, plasma, and urine were made with a Tri-Carb Model 3100 TR/LL LSC using 5-10 mL of Ultima Gold as the scintillation fluid. Feces were weighed and homogenized in water at a volume-to-weight ratio of about 5:1. Aliquots of blood (200 μL) and fecal homogenates (0.25-0.53 gram) were placed on Combusto-cones with Combusto-pads and combusted. A model 307 Tri-Carb sample oxidizer, equipped with an Oximate-80 robotic automatic sampler (Perkin Elmer), was used for combustion of blood and fecal samples. The liberated ^14CO2 was trapped with Carbo-Sorb E carbon dioxide absorber, mixed with PermaFluor® E+ liquid scintillation cocktail, and counted on a Tri-Carb Model 3100 TR/LL liquid scintillation counter (Perkin Elmer). The efficiency of combustion was 98.9%.

[4] = dog, enteric-coated capsule, mass balance study; cited from earlier work

c1cc2c3c(c1)[C@H]1CCC[C@H]1CN3CCNC2 [DCDQ, (9aR,12aS)-4,5,6,7,9,9a,10,11,12,12a-decahydro-cyclopenta[c][1,4]diazepine[6,7,1-ij]quinoline, reference compound]
oral bioavailability [1]: approximately 25.4%

c1cc2c3c(c1)[C@H]1CCC[C@H]1CN3CCNC2 [[^14C]DCDQ]
Blood concentration of radioactivity, Mean ± SD ([2]; female rats, 2 hr): 697 ± 219 ng equivalents/mL | Plasma concentration of radioactivity, Mean ± SD ([2]; female rats, 2 hr): 658 ± 189 ng equivalents/mL | Blood concentration of radioactivity, individuals ([2]; female rats, 2 hr): 661 ng equivalents/mL and 932 ng equivalents/mL and 499 ng equivalents/mL | Plasma concentration of radioactivity, individuals ([2]; female rats, 2 hr): 635 ng equivalents/mL and 857 ng equivalents/mL and 481 ng equivalents/mL | Blood concentration of radioactivity, Mean ± SD ([2]; female rats, 8 hr): 307 ± 68.4 ng equivalents/mL | Plasma concentration of radioactivity, Mean ± SD ([2]; female rats, 8 hr): 338 ± 60.7 ng equivalents/mL | Blood concentration of radioactivity, individuals ([2]; female rats, 8 hr): 413 ng equivalents/mL and 292 ng equivalents/mL and 406 ng equivalents/mL | Plasma concentration of radioactivity, individuals ([2]; female rats, 8 hr): 362 ng equivalents/mL and 269 ng equivalents/mL and 383 ng equivalents/mL | Blood concentration of radioactivity, Mean ± SD ([2]; male rats, 2 hr): 706 ± 158 ng equivalents/mL | Plasma concentration of radioactivity, Mean ± SD ([2]; male rats, 2 hr): 632 ± 144 ng equivalents/mL | Blood concentration of radioactivity, individuals ([2]; male rats, 2 hr): 606 ng equivalents/mL and 624 ng equivalents/mL and 888 ng equivalents/mL | Plasma concentration of radioactivity, individuals ([2]; male rats, 2 hr): 567 ng equivalents/mL and 531 ng equivalents/mL and 797 ng equivalents/mL | Blood concentration of radioactivity, Mean ± SD ([2]; male rats, 4 hr): 704 ± 18.7 ng equivalents/mL | Plasma concentration of radioactivity, Mean ± SD ([2]; male rats, 4 hr): 659 ± 16.5 ng equivalents/mL | Blood concentration of radioactivity, individuals ([2]; male rats, 4 hr): 698 ng equivalents/mL and 725 ng equivalents/mL and 689 ng equivalents/mL | Plasma concentration of radioactivity, individuals ([2]; male rats, 4 hr): 678 ng equivalents/mL and 652 ng equivalents/mL and 647 ng equivalents/mL | Blood concentration of radioactivity, Mean ± SD ([2]; male rats, 8 hr): 525 ± 45.3 ng equivalents/mL | Plasma concentration of radioactivity, Mean ± SD ([2]; male rats, 8 hr): 465 ± 43.1 ng equivalents/mL | Blood concentration of radioactivity, individuals ([2]; male rats, 8 hr): 538 ng equivalents/mL and 475 ng equivalents/mL and 562 ng equivalents/mL | Plasma concentration of radioactivity, individuals ([2]; male rats, 8 hr): 487 ng equivalents/mL and 415 ng equivalents/mL and 492 ng equivalents/mL | Blood concentration of radioactivity, Mean ± SD ([2]; male rats, 24 hr): 68.0 ± 10.0 ng equivalents/mL | Plasma concentration of radioactivity, Mean ± SD ([2]; male rats, 24 hr): 46.9 ± 8.30 ng equivalents/mL | Blood concentration of radioactivity, individuals ([2]; male rats, 24 hr): 66.5 ng equivalents/mL and 58.9 ng equivalents/mL and 78.7 ng equivalents/mL | Plasma concentration of radioactivity, individuals ([2]; male rats, 24 hr): 50.5 ng equivalents/mL and 37.4 ng equivalents/mL and 52.8 ng equivalents/mL | Blood concentration of radioactivity, Mean ± SD ([3]; 2 hr): 262 ± 391 ng equivalents/mL | Plasma concentration of radioactivity, Mean ± SD ([3]; 2 hr): 422 ± 573 ng equivalents/mL | Blood concentration of radioactivity, individual dogs 1-4 ([3]; 2 hr): 161 ng equivalents/mL and 840 ng equivalents/mL and 48.6 ng equivalents/mL and 0.00 ng equivalents/mL | Plasma concentration of radioactivity, individual dogs 1-4 ([3]; 2 hr): 360 ng equivalents/mL and 1250 ng equivalents/mL and 74.4 ng equivalents/mL and 4.13 ng equivalents/mL | Blood concentration of radioactivity, Mean ± SD ([3]; 4 hr): 372 ± 505 ng equivalents/mL | Plasma concentration of radioactivity, Mean ± SD ([3]; 4 hr): 564 ± 748 ng equivalents/mL | Blood concentration of radioactivity, individual dogs 1-4 ([3]; 4 hr): 319 ng equivalents/mL and 1100 ng equivalents/mL and 66.7 ng equivalents/mL and 0.90 ng equivalents/mL | Plasma concentration of radioactivity, individual dogs 1-4 ([3]; 4 hr): 500 ng equivalents/mL and 1640 ng equivalents/mL and 112 ng equivalents/mL and 4.13 ng equivalents/mL | Blood concentration of radioactivity, Mean ± SD ([3]; 8 hr): 347 ± 378 ng equivalents/mL | Plasma concentration of radioactivity, Mean ± SD ([3]; 8 hr): 528 ± 566 ng equivalents/mL | Blood concentration of radioactivity, individual dogs 1-4 ([3]; 8 hr): 331 ng equivalents/mL and 878 ng equivalents/mL and 176 ng equivalents/mL and 5.41 ng equivalents/mL | Plasma concentration of radioactivity, individual dogs 1-4 ([3]; 8 hr): 541 ng equivalents/mL and 1310 ng equivalents/mL and 256 ng equivalents/mL and 4.13 ng equivalents/mL | Blood concentration of radioactivity, Mean ± SD ([3]; 24 hr): 920 ± 341 ng equivalents/mL | Plasma concentration of radioactivity, Mean ± SD ([3]; 24 hr): 1340 ± 508 ng equivalents/mL | Blood concentration of radioactivity, individual dogs 1-4 ([3]; 24 hr): 980 ng equivalents/mL and 782 ng equivalents/mL and 1360 ng equivalents/mL and 556 ng equivalents/mL | Plasma concentration of radioactivity, individual dogs 1-4 ([3]; 24 hr): 1530 ng equivalents/mL and 1110 ng equivalents/mL and 1940 ng equivalents/mL and 769 ng equivalents/mL | Blood concentration of radioactivity, Mean ± SD ([3]; 48 hr): 343 ± 79.9 ng equivalents/mL | Plasma concentration of radioactivity, Mean ± SD ([3]; 48 hr): 507 ± 135 ng equivalents/mL | Blood concentration of radioactivity, individual dogs 1-4 ([3]; 48 hr): 333 ng equivalents/mL and 434 ng equivalents/mL and 364 ng equivalents/mL and 241 ng equivalents/mL | Plasma concentration of radioactivity, individual dogs 1-4 ([3]; 48 hr): 504 ng equivalents/mL and 669 ng equivalents/mL and 517 ng equivalents/mL and 339 ng equivalents/mL | dose recovered in urine [4]: 32.7%
